# Measurements published in ChEMBL document CHEMBL4732087, “Structure-activity relationship (SAR) studies of N-(3-methylpyridin-2-yl)-4-(pyridin-2-yl)thiazol-2-amine (SRI-22819) as NF-ҡB activators for the treatment of ALS” (Eur J Med Chem, 2021).
# Experiment: Cmax in CD1 mouse at 5 mg/kg, po by LC-MS/MS analysis
# Assay type: ADME, organism-based
# Parameters: route oral, dose 5 mg/kg
# Settings: in vivo
row,Cmax [ng/mL],SMILES
1,92,O=C(O)c1cccc(-c2cnc(Nc3ccccc3F)o2)c1
2,101,O=C(O)c1cccc(-c2csc(Nc3ccccc3F)n2)c1

# Experiment: Oral bioavailability in CD1 mouse at 5 mg/kg by LC-MS/MS analysis
# Assay type: ADME, organism-based
# Settings: in vivo
row,bioavailability [%],SMILES
1,15.6,O=C(O)c1cccc(-c2cnc(Nc3ccccc3F)o2)c1
2,26.6,O=C(O)c1cccc(-c2csc(Nc3ccccc3F)n2)c1

# Experiment: Kinetic solubility of compound at pH 7.4 by shake flask method
# Assay type: physicochemical
# Settings: buffer, read-out: Kinetic_solubility
row,SMILES,solubility kinetic [µM]
1,O=C(O)c1ccc(-c2csc(-c3ccccc3F)n2)cc1,38.4
2,COc1cccc(-c2csc(Nc3ccccc3F)n2)c1,49.3
3,Cc1cccnc1Nc1ncc(-c2ccccn2)o1,72.5
4,OCc1cccc(-c2csc(Nc3ccccc3F)n2)c1,30.9
5,O=C(O)c1cccc(-c2noc(-c3ccccc3F)n2)c1,70.5
6,NCc1cccc(-c2cnc(Nc3ccc(F)cc3)o2)c1,50.8
7,Fc1cccc(-c2csc(Nc3ccccc3F)n2)c1,< 1
8,COC(=O)c1ccc(-c2cnc(Nc3ccccc3F)o2)cc1,< 1
9,O=C(O)c1cccc(-c2csc(Nc3ccccc3F)n2)c1,80.9
10,O=C(O)c1cccc(-c2csc(-c3ccccc3F)n2)c1,55.2
11,O=C(O)c1cccc(-c2csc(Nc3ccccc3)n2)c1,70.2
12,Fc1cccnc1Nc1nc(-c2ccccn2)cs1,45.4
13,Fc1ccccc1Nc1nc(-c2ccccc2)cs1,< 1
14,COc1cccnc1Nc1nc(-c2ccccn2)cs1,1.2
15,O=C(O)c1cccc(-c2nc(Nc3ccccc3F)cs2)c1,> 100

# Further lines, results first:
row,solubility kinetic [µM],SMILES
1,< 1,COC(=O)c1cccc(-c2cnc(Nc3ccc(F)cc3)o2)c1
2,5,CC(=O)Nc1cccc(-c2cnc(Nc3ccc(F)cc3)o2)c1
3,277,CN(c1ccc(F)cc1)c1ncc(-c2cccc(C(=O)O)c2)o1
4,60.4,CNC(=O)c1cccc(-c2cnc(N(C)c3ccc(F)cc3)o2)c1
5,69.5,O=C(O)c1cccc(-c2cnc(-c3ccccc3F)o2)c1
6,15.2,Nc1cccc(-c2cnc(Nc3ccc(F)cc3)o2)c1
7,< 1,COC(=O)c1cccc(-c2cnc(Nc3cccc(F)c3)o2)c1
8,3.1,CNC(=O)c1cccc(-c2cnc(Nc3ccc(F)cc3)o2)c1
9,77.7,O=C(O)c1cccc(-c2csc(Nc3ccc(F)cc3)n2)c1
10,69,O=C(O)c1cccc(-c2cnc(Nc3ccc(F)cc3F)o2)c1

# Experiment: Drug concentration in CD1 mouse brain at 1 mg/kg, iv measured at […] by LC-MS/MS analysis
# Assay type: ADME, organism-based
# Settings: time 0.25 hrs, read-out: Ct
row,SMILES,concentration at […] [ng/g]
1,NCc1cccc(-c2cnc(Nc3ccc(F)cc3)o2)c1,473
2,Cc1noc(-c2cccc(-c3cnc(Nc4ccc(F)cc4)o3)c2)n1,821

# Further lines, results first:
row,concentration at […] [ng/g],SMILES
1,16.4,CN(c1ccc(F)cc1)c1ncc(-c2cccc(C(=O)O)c2)o1
2,200,CNC(=O)c1cccc(-c2cnc(N(C)c3ccc(F)cc3)o2)c1

# Experiment: Drug concentration in CD1 mouse brain at 1 mg/kg, iv measured at 0.5 hrs by LC-MS/MS analysis
# Assay type: ADME, organism-based
# Settings: read-out: Ct
row,SMILES,concentration at 0.5 h [ng/g]
1,NCc1cccc(-c2cnc(Nc3ccc(F)cc3)o2)c1,297
2,Cc1noc(-c2cccc(-c3cnc(Nc4ccc(F)cc4)o3)c2)n1,357

# The next lines start with the values.
row,concentration at 0.5 h [ng/g],SMILES
1,7.27,CN(c1ccc(F)cc1)c1ncc(-c2cccc(C(=O)O)c2)o1
2,30.9,CNC(=O)c1cccc(-c2cnc(N(C)c3ccc(F)cc3)o2)c1

# Experiment: Drug concentration in CD1 mouse plasma at 1 mg/kg, iv measured at […] by LC-MS/MS analysis
# Assay type: ADME, organism-based
# Settings: time 0.25 hrs
row,SMILES,concentration at […] [ng/mL]
1,NCc1cccc(-c2cnc(Nc3ccc(F)cc3)o2)c1,32.8
2,Cc1noc(-c2cccc(-c3cnc(Nc4ccc(F)cc4)o3)c2)n1,119

# More lines, now with the values ahead:
row,concentration at […] [ng/mL],SMILES
1,788,CN(c1ccc(F)cc1)c1ncc(-c2cccc(C(=O)O)c2)o1
2,164,CNC(=O)c1cccc(-c2cnc(N(C)c3ccc(F)cc3)o2)c1

# Experiment: Drug concentration in CD1 mouse plasma at 1 mg/kg, iv measured at 0.5 hrs by LC-MS/MS analysis
# Assay type: ADME, organism-based
# Settings: not given
row,SMILES,concentration at 0.5 h [ng/mL]
1,NCc1cccc(-c2cnc(Nc3ccc(F)cc3)o2)c1,21
2,Cc1noc(-c2cccc(-c3cnc(Nc4ccc(F)cc4)o3)c2)n1,74.4

# The remaining lines, values ahead:
row,concentration at 0.5 h [ng/mL],SMILES
1,529,CN(c1ccc(F)cc1)c1ncc(-c2cccc(C(=O)O)c2)o1
2,31.1,CNC(=O)c1cccc(-c2cnc(N(C)c3ccc(F)cc3)o2)c1

# Experiment: Ratio of drug concentration in brain to plasma in CD1 mouse at 1 mg/kg, iv measured at […] by LC-MS/MS analysis
# Assay type: ADME, organism-based
# Settings: time 0.25 hrs
row,SMILES,Kp at […]
1,NCc1cccc(-c2cnc(Nc3ccc(F)cc3)o2)c1,14.5
2,Cc1noc(-c2cccc(-c3cnc(Nc4ccc(F)cc4)o3)c2)n1,6.93

# Next, values leading:
row,Kp at […],SMILES
1,0.0213,CN(c1ccc(F)cc1)c1ncc(-c2cccc(C(=O)O)c2)o1
2,1.21,CNC(=O)c1cccc(-c2cnc(N(C)c3ccc(F)cc3)o2)c1

# Experiment: Ratio of drug concentration in brain to plasma in CD1 mouse at 1 mg/kg, iv measured at 0.5 hrs by LC-MS/MS analysis
# Assay type: ADME, organism-based
# Settings: not given
row,SMILES,Kp at 0.5 h
1,NCc1cccc(-c2cnc(Nc3ccc(F)cc3)o2)c1,14.3
2,Cc1noc(-c2cccc(-c3cnc(Nc4ccc(F)cc4)o3)c2)n1,4.81

# Second part, the molecule after the results:
row,Kp at 0.5 h,SMILES
1,0.0137,CN(c1ccc(F)cc1)c1ncc(-c2cccc(C(=O)O)c2)o1
2,1.02,CNC(=O)c1cccc(-c2cnc(N(C)c3ccc(F)cc3)o2)c1
